Results: patent US20210260069A1, “IRE1a INHIBITOR IN COMBINATION WITH CANCER [sequence] AGENT FOR CANCER TREATMENT” (Fosun Orinove PharmaTech, Inc., priority 2018, published 2021)

Legend:
[1] = tested on: MCF-7 cells; assay: XBP1s level induced in MCF-7 cells; format: cell-based, human
Description: (§1) This method applies to any mammalian cell line but was typically applied to human MM1s myeloma cells for EC50 and RPMI […] plasmacytoma cells for confirmation of selected compounds. Briefly, cells were grown in standard conditions and spread into 96 well tissue culture plates. Cells were treated with compounds with indicated concentration using serial dilutions. DTT (dithiothreitol) or compounds were added at the same time and cells were harvested after indicated hour's treatment. Cells treated with DTT alone were used as 100% XBP1s positive controls and cell left untreated were used as base line XBP1s level.
(§2) Splicing Assay: Total RNA was isolated from cells treated with compounds using Applied Biosystems RNAqueous kit. 1 μg of total RNA was reverse transcribed using Oligo dt (12-18) (Invitrogen). The cDNA was then amplified at 95° C. for 8 min and 30 sec, then 40 cycles at 95° C. for 15 sec and 63° C. for 1 min. Samples were run against a purified standard curve for both spliced and unspliced XBP1, and further normalized to internal house-keeping gene GAPDH.
(§3) The same methods were used as above for Lestaurtinib.

[2] = tested on: Hepatoma cells; assay: XBP1s level induced in Hepatoma (Hep G2) cells; format: cell-based, human
Description: as §1, §2

[3] = tested on: XBP1s; assay: Determination of XBP1s level induced by various compounds (RT-qPCR splicing assay), several cell lines; format: cell-based, human; conditions: for induction of XBP1s: in a time, cell or concentration dependent manner; for ER stress measured by XBP1s level (FIG. 6): Hep G2, MCF-7 and RPMI 8226 cells, 1, 2 or 4 hours
Description: as §1, §2

[4] = tested on: A549 cells; assay: XBP1s level induced in A549 cells; format: cell-based, human
Description: (§4) Briefly, cells were grown in standard conditions and spread into 96 well tissue culture plates. Cells were treated with compounds with indicated concentration using serial dilutions. DTT (dithiothreitol) or compounds were added at the same time and cells were harvested after indicated hour's treatment. Cells treated with DTT alone were used as 100% XBP1s positive controls and cell left untreated were used as base line XBP1s level.
as §2, §3

[5] = tested on: RPMI 8226 cells; assay: XBP1s level induced in RPMI 8226 cells; format: cell-based, human
Description: as §4, §2, §3

[6] = tested on: MM1s cells; assay: XBP1s level induced in MM1s cells; format: cell-based, human
Description: as §1, §2, §3

[7] = tested on: human liver HUH-7 cells; assay: Subcutaneous HUH-7 liver cancer xenograft model, survival (Example 23); format: in vivo, Female BALB/c nude mice
Description: Female BALB/c nude mice were subcutaneously inoculated with human liver HUH-7 cells (from JCRB) to establish a xenograft model of liver cancer. The scheduled administration cycle was 28 days. Animals were assigned into 4 groups (n=10/group): one vehicle group, two single treatment groups (Orin 1001 administered at 80 mg/kg/day q.d. for 28 days; Sorafenib administered following a dose regimen of 18.25 mg/kg/day q.d. for 5 days, then 25 mg/kg/day q.d. for 3 days, and then 45 mg/kg/day q.d. for 20 days, consecutively) and one combination treatment group (sorafenib administered following a dose regimen of 18.25 mg/kg/day q.d. for 5 days, then 25 mg/kg/day q.d. for 3 days, and then 45 mg/kg/day q.d. for 20 days, consecutively, whilst combined with Orin 1001 administered q.d. at a dose of 80 mg/kg/day for 28 days). All vehicle or administration treatments were given via oral gavage. Sorafenib was formulated with Kolliphor® EL/ethanol (2/1, v/v) and water. Orin 1001 was dissolved with cellulose microcrystalline and sucrose in purified water to form as suspension. The mice were euthanized if a tumor volume achieved over 2000 mm^3. Otherwise the experiment ended on the 6th day after the last administration.

[8] = tested on: Hep3B-Luc cells; assay: Orthotopic Hep3B-luc human liver xenograft model (Example 22); format: in vivo, female BALB/c nude mice
Description: The tumor was inoculated by injecting Hep3B-Luc cells (established by WuXi AppTec R&D center) mixed with BD Matrigel in 20 μl (PBS:Matrigel=1:1) into the left lobe of the liver. […] Sorafenib was formulated with Cremophor® EL/ethanol (1:1) and purified water to form a solution of 9 mg/ml. […] Tumor weight was measured at the termination of study. T/Cweight value (in percent) was calculated using the formula: T/Cweight%=Tweight/Cweight×100%, while Tweight and Cweight were the mean tumor weights of the treated and the vehicle control groups, respectively.

[9] = tested on: RPMI 8226 tumor cells; assay: Intratumoral XBP-1 spliced effect in Velcade treated RPMI xenografts; format: in vivo, Nude mice; conditions: Velcade 0.8 mg/kg IV on day 21 and day 24, RPMI 8226 xenograft
Description: The mice were treated again on the 24th day with Velcade®. On Day 27, the mice were treated with Orin 1001 at 30 mg/kg PO, four hours later the mice were sacrificed as in Example 25, and tumor tissues were isolated. In a similar way as described for the liver PD test in Example 25, RNA extraction and RT-PCR analysis gave the results as shown FIG. 13.
BALB/c mice were injected intraperitoneally with 100 microliters at an equivalent dose of 1 mg/kg tunicamycin solution. Two hours after tunicamycin injection, mice were dosed with compound of interest either PO or IV. Following 2 hours for PO delivery of compound, mice were euthanized according to IACUC protocols using CO2 from a […] source. A 1 cm^3 fragment of the liver for homogenization and extraction of the RNA were collected for further analysis. Total RNA is harvested from cells or tissue using TRIzol according to the manufacturer's procedures. After ethanol precipitation and resuspension of the RNA, RiboGreen (Invitrogen) is used to quantify the yield and normalize the RNA concentration in the source tube containing isolated RNA. RT-PCR is performed by Oligo(dT) priming, and SuperScript II (Invitrogen) transcription using the Amplitaq Gold Kit (Applied Biosystems) according to the manufacturer's protocols. […]

[10] = tested on: HT-29 cells; assay: XBP1s level induced in HT-29 cells; format: cell-based, human
Description: as §1, §2, §3

C=CCNC1=C2C[C@@H](C)C[C@H](OC)[C@H](O)[C@@H](C)/C=C(\C)[C@H](OC(N)=O)[C@@H](OC)/C=C\C=C(/C)C(=O)NC(=CC1=O)C2=O [17-AAG]
levels of XBP1s ([1]; 1 hour of treatment): high levels
levels of XBP1s ([1]; 2 hours of treatment): modest levels
levels of XBP1s ([1]; 4 hours of treatment): low levels
levels of XBP1s ([2]; 1 hour of treatment): high levels
levels of XBP1s ([2]; 2 hours of treatment): modest levels
levels of XBP1s ([2]; 4 hours of treatment): low levels
induction of XBP1s [3]: able to induce XBP1s

COc1cc2ncnc(Nc3ccc(F)c(Cl)c3)c2cc1OCCCN1CCOCC1 [Gefitinib]
levels of XBP1s ([4]; 1 hour of treatment): increasing
levels of XBP1s ([4]; 2 hours of treatment): highest levels
induction of XBP1s [3]: able to induce XBP1s

Nc1ccn([C@@H]2O[C@H](CO)[C@@H](O)C2(F)F)c(=O)n1 [Gemcitabine]
induction of XBP1s [3]: able to induce XBP1s
levels of XBP1s ([5]; 1 hour of treatment): low levels
levels of XBP1s ([5]; 2 hours of treatment): low levels
levels of XBP1s ([5]; 4 hours of treatment): high levels

Cc1cn(-c2cc(NC(=O)c3ccc(C)c(Nc4nccc(-c5cccnc5)n4)c3)cc(C(F)(F)F)c2)cn1 [Nilotinib]
XBP1s induced ([6]; 1 hour of treatment): modest amounts
XBP1s induced ([6]; 2 hours of treatment): greater than 50%
XBP1s induced ([6]; 4 hours of treatment): modest amounts
induction of XBP1s [3]: able to induce XBP1s

CNC(=O)c1cc(Oc2ccc(NC(=O)Nc3ccc(Cl)c(C(F)(F)F)c3)cc2)ccn1 [Sorafenib]
levels of XBP1s ([4]; 1 hour of treatment): highest levels
levels of XBP1s ([4]; 2 hours of treatment): highest levels
levels of XBP1s ([4]; 4 hours of treatment): modest levels
Median Survival Time (MST) ([7]; Orin 1001 80 mg/kg/day q.d. 28 days, sorafenib 18.25/25/45 mg/kg, Kaplan-Meier): 24 days
ILS (%) (increase of life span) ([7]; versus vehicle group (group 1)): 20%
induction of XBP1s [3]: able to induce XBP1s
T/Cweight (%) ([8]; mean tumor weight treated / vehicle control, day 28): 19%
Tumor Weight (g) at day 28 ([8]; oral gavage 28 consecutive days, Orin 1001 80 mg/kg/day, sorafenib 45 mg/kg/day): 0.91 ± 0.29 g

CO[C@H]1C[C@@H]2CC[C@@H](C)[C@@](O)(O2)C(=O)C(=O)N2CCCC[C@H]2C(=O)O[C@H]([C@H](C)C[C@@H]2CC[C@@H](OC(=O)C(C)(CO)CO)[C@H](OC)C2)CC(=O)[C@H](C)/C=C(\C)[C@@H](O)[C@@H](OC)C(=O)[C@H](C)C[C@H](C)/C=C/C=C/C=C/1C [Torisel®, Temsirolimus]
levels of XBP1s ([4]; 1 hour of treatment): high levels
levels of XBP1s ([4]; 2 hours of treatment): modest levels
levels of XBP1s ([4]; 4 hours of treatment): high levels
ER stress measured by XBP1s level (FIG. 6) [3]: enhanced
induction of XBP1s [3]: able to induce XBP1s

Clc1ccc(Nc2nnc(Cc3ccncc3)c3ccccc23)cc1 [Vatalinib]
ER stress measured by XBP1s level (FIG. 6) [3]: enhanced
induction of XBP1s [3]: able to induce XBP1s

CC(C)C[C@H](NC(=O)[C@H](Cc1ccccc1)NC(=O)c1cnccn1)B(O)O [Velcade®, [(1R)-3-methyl-1-[[(2S)-1-oxo-3-phenyl-2-[(pyrazinylcarbonyl)amino]propyl]amino]butyl] boronic acid]
level of XBP1s in tumor [9]: increased the level of XBP1s

O=C(CCCCCCC(=O)Nc1ccccc1)NO [Vorinostat]
levels of XBP1s ([10]; 1 hour of treatment): high levels
levels of XBP1s ([10]; 2 hours of treatment): little
levels of XBP1s ([10]; 4 hours of treatment): little
induction of XBP1s [3]: able to induce XBP1s
